Laboratory results reported in patent US9453026B2, “ACC inhibitors and uses thereof” (Gilead Apollo, Inc., priority 2011, dated 2016).
pIC50: −log10 of the molar value.

Experiments:
ACC1 = ACC1 (Homo sapiens, UniProt Q13085); assay: In vitro ACC1 inhibition assay (ADP-Glo); type: biochemical; settings: read-out: ACC1
Description: An exemplary procedure for the in vitro ACC inhibition assay, which can be used to determine the inhibitory action of compounds of the invention toward either ACC1 or ACC2, follows. The ADP-Glo™ Kinase Assay kit from Promega was used. The ADP-Glo™ Kinase Assay is a luminescent ADP detection assay to measure enzymatic activity by quantifying the amount of ADP produced during an enzyme reaction. The assay is performed in two steps; first, after the enzyme reaction, an equal volume of ADP-Glo™ Reagent is added to terminate the reaction and deplete the remaining ATP. Second, the Kinase Detection Reagent is added to simultaneously convert ADP to ATP and allow the newly synthesized ATP to be measured using a luciferase/luciferin reaction. Luminescence can be correlated to ADP concentrations by using an ATP-to-ADP conversion curve. The detailed procedure is as follows. 50 μL of the compound being tested (600 uM in DMSO) was added to a 384-well dilution plate. The compound was diluted 1:3 in succession in DMSO for each row for 11 wells. 0.5 μL ACC2 working solution was added to 384-well white Optiplate assay plate. 0.5 μL diluted compound solution in each column from step 2 to assay plate, each row containing 2 replicates. […] The plates were incubated at room temperature for 15 minutes. 5 μL substrate working solution was added to each well to initiate reaction. […] Plates were incubated at room temperature for 60 minutes. 10 μL ADP glo reagent was added. Plates were incubated at room temperature for 40 minutes. 20 μL kinase detection reagent was added.
Data for each concentration, as well as the positive and negative controls were averaged, and the standard deviation calculated. Percent inhibition was calculated by the formula: 100× (average negative control−compound)/(average negative control−average positive control). The IC50 for each compound was calculated by fitting the data with a non-linear regression equation: Y=Bottom+(Top-Bottom)/(1+10^((Log IC50−X)*HillSlope)), where X is the log of compound concentration and Y is percent inhibition.
The compound numbers correspond to the compound numbers in Table 1.

ACC2 = ACC2 (Homo sapiens, UniProt O00763); assay: In vitro ACC2 inhibition assay (ADP-Glo); type: biochemical; settings: read-out: ACC2
Chain of ACC2 (O00763 whole entry, species assumed): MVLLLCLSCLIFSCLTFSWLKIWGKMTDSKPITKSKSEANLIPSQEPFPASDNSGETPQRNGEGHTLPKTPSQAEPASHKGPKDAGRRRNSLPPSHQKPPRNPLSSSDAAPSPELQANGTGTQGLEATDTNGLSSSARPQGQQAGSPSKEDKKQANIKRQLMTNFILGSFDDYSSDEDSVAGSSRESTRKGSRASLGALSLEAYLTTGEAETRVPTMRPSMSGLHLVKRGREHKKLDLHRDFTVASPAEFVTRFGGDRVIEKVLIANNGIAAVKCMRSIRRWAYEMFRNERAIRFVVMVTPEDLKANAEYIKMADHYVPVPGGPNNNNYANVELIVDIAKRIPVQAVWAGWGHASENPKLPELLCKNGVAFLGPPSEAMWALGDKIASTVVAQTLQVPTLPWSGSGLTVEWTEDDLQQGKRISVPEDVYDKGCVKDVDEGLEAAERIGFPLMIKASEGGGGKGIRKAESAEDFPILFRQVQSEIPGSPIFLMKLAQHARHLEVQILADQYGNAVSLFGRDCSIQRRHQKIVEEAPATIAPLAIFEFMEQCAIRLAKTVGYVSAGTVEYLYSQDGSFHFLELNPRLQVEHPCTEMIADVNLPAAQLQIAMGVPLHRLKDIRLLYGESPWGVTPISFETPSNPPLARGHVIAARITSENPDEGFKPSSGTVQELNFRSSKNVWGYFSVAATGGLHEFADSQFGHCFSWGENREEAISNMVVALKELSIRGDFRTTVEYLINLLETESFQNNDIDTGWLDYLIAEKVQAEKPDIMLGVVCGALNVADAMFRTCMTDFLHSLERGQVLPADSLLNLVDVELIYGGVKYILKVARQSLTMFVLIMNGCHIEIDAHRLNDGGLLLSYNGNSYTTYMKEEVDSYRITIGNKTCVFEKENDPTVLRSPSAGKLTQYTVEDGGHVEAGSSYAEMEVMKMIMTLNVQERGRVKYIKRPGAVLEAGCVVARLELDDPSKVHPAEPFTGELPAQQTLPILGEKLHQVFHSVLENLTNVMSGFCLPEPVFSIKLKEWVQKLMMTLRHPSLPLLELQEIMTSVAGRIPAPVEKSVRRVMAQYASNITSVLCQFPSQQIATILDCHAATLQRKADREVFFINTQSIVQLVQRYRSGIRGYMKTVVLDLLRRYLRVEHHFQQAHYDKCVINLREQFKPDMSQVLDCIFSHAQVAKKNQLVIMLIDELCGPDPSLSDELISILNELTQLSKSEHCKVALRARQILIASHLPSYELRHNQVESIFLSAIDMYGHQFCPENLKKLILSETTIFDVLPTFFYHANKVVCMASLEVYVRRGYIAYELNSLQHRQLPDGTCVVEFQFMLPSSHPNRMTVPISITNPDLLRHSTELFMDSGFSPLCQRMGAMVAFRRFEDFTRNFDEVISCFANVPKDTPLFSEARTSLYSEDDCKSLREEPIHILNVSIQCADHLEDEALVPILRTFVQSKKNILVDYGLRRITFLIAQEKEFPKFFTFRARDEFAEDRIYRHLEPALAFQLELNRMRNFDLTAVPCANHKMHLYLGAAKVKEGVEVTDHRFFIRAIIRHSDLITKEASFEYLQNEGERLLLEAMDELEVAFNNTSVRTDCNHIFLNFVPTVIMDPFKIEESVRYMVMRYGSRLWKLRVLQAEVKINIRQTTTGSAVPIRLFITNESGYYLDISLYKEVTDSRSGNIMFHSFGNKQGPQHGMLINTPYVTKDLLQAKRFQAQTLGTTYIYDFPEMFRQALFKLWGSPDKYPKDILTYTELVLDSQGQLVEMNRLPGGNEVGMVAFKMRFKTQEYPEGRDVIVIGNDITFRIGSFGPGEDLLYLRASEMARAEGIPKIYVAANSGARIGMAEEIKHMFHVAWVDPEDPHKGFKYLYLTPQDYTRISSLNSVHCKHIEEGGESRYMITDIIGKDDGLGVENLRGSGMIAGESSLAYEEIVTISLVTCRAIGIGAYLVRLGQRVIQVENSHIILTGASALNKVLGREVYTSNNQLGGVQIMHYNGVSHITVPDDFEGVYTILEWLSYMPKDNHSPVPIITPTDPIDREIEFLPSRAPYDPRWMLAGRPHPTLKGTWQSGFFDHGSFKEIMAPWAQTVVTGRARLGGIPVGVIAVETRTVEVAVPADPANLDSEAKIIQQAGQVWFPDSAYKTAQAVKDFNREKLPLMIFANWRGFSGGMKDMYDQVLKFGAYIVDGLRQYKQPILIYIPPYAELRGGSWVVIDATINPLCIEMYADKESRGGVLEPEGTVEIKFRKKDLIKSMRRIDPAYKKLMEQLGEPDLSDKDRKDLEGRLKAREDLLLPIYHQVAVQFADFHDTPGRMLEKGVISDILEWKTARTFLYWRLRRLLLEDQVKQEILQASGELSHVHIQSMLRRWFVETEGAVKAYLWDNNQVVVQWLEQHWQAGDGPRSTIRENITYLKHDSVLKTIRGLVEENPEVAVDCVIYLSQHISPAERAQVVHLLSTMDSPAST
Procedure, shortened: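 Enzyme (human ACC1 or ACC2) and compound, serially diluted 1:3 over 11 points from a 600 uM DMSO stock, were preincubated 15 min before substrate addition.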

Row | Structure (SMILES) | pIC50 (ACC1) | pIC50 (ACC2)
1 | Cc1c(-c2ncco2)sc2c1c(=O)n(C(C)(C)C(=O)O)c(=O)n2C[C@H](OC1CCC(O)CC1)c1ccccc1 (stereo partly drawn) [I-164, 2-[1-[(2R)-2-[(4-hydroxycyclohexyl)oxy]-2-phenylethyl]-5-methyl-6-(1,3-oxazol-2-yl)-2,4-dioxo-1H,2H,3H,4H-thieno[2,3-d]pyrimidin-3-yl]-2-methylpropanoic acid] | > 7.00 | > 7.00
2 | CCOc1ccccc1[C@H](Cn1c(=O)n(C(C)(C)C(=O)O)c(=O)c2c(C)c(-c3ncco3)sc21)OC(C)C [I-177, 2-[1-[(2R)-2-(2-ethoxyphenyl)-2-(propan-2-yloxy)ethyl]-5-methyl-6-(1,3-oxazol-2-yl)-2,4-dioxo-1H,2H,3H,4H-thieno[2,3-d]pyrimidin-3-yl]-2-methylpropanoic acid] | > 7.00 | > 7.00
3 | COc1ccccc1[C@H](Cn1c(=O)n(C(C)(C)C(=O)N2CCC2)c(=O)c2c(C)c(-c3ncco3)sc21)OC(C)C [I-237, 3-[1-(azetidin-1-yl)-2-methyl-1-oxopropan-2-yl]-1-[(2R)-2-(2-methoxyphenyl)-2-(propan-2-yloxy)ethyl]-5-methyl-6-(1,3-oxazol-2-yl)-1H,2H,3H,4H-thieno[2,3-d]pyrimidine-2,4-dione] | > 7.00 | > 7.00
4 | COc1ccccc1[C@H](Cn1c(=O)n(C(C)(C)C(=O)N2CCCC2)c(=O)c2c(C)c(-c3ncco3)sc21)OC(C)C [I-238, 1-[(2R)-2-(2-methoxyphenyl)-2-(propan-2-yloxy)ethyl]-5-methyl-3-[2-methyl-1-oxo-1-(pyrrolidin-1-yl)propan-2-yl]-6-(1,3-oxazol-2-yl)-1H,2H,3H,4H-thieno[2,3-d]pyrimidine-2,4-dione] | > 7.00 | > 7.00
5 | COc1ccccc1[C@H](Cn1c(=O)n(C(C)(C)C(=O)N2CCCCC2)c(=O)c2c(C)c(-c3ncco3)sc21)OC(C)C [I-239, 1-[(2R)-2-(2-methoxyphenyl)-2-(propan-2-yloxy)ethyl]-5-methyl-3-[2-methyl-1-oxo-1-(piperidin-1-yl)propan-2-yl]-6-(1,3-oxazol-2-yl)-1H,2H,3H,4H-thieno[2,3-d]pyrimidine-2,4-dione] | > 7.00 | > 7.00
6 | COc1ccccc1[C@H](Cn1c(=O)n(C(C)(C)C(=O)N2CC(O)C2)c(=O)c2c(C)c(-c3ncco3)sc21)OC(C)C [I-241, 3-[1-(3-hydroxyazetidin-1-yl)-2-methyl-1-oxopropan-2-yl]-1-[(2R)-2-(2-methoxyphenyl)-2-(propan-2-yloxy)ethyl]-5-methyl-6-(1,3-oxazol-2-yl)-1H,2H,3H,4H-thieno[2,3-d]pyrimidine-2,4-dione] | > 7.00 | > 7.00
7 | CCO[C@@H](Cn1c(=O)n(C(C)(C)C(=O)O)c(=O)c2c(C)c(-c3ncco3)sc21)c1ccccc1OC [I-243, 2-[1-[(2R)-2-ethoxy-2-(2-methoxyphenyl)ethyl]-5-methyl-6-(1,3-oxazol-2-yl)-2,4-dioxo-1H,2H,3H,4H-thieno[2,3-d]pyrimidin-3-yl]-2-methylpropanoic acid] | > 7.00 | > 7.00
8 | CCc1ccccc1[C@H](Cn1c(=O)n(C(C)(C)C(=O)O)c(=O)c2c(C)c(-c3ncco3)sc21)O[C@H]1CC[C@H](O)CC1 [I-244, 2-(1-((R)-2-(2-ethylphenyl)-2-(((1r,4R)-4-hydroxycyclohexyl)oxy)ethyl)-5-methyl-6-(oxazol-2-yl)-2,4-dioxo-1,2-dihydrothieno[2,3-d]pyrimidin-3(4H)-yl)-2-methylpropanoic acid] | > 7.00 | > 7.00
9 | COc1ccccc1[C@H](Cn1c(=O)n(C(C)(C)C(=O)N2CCC2)c(=O)c2c(C)c(-c3ncco3)sc21)OC1CCOCC1 [I-247, 3-[1-(azetidin-1-yl)-2-methyl-1-oxopropan-2-yl]-1-[(2R)-2-(2-methoxyphenyl)-2-(oxan-4-yloxy)ethyl]-5-methyl-6-(1,3-oxazol-2-yl)-1H,2H,3H,4H-thieno[2,3-d]pyrimidine-2,4-dione] | > 7.00 | > 7.00
10 | CCc1ccccc1[C@H](Cn1c(=O)n(C(C)(C)C(=O)O)c(=O)c2c(C)c(-c3ncco3)sc21)OCCO [I-255, 2-[1-[(2R)-2-(2-ethylphenyl)-2-(2-hydroxyethoxy)ethyl]-5-methyl-6-(1,3-oxazol-2-yl)-2,4-dioxo-1H,2H,3H,4H-thieno[2,3-d]pyrimidin-3-yl]-2-methylpropanoic acid] | > 7.00 | > 7.00
11 | CCOc1ccccc1[C@H](Cn1c(=O)n(C(C)(C)C(=O)O)c(=O)c2c(C)c(-c3ncco3)sc21)OCCO [I-256, 2-[1-[(2R)-2-(2-ethoxyphenyl)-2-(2-hydroxyethoxy)ethyl]-5-methyl-6-(1,3-oxazol-2-yl)-2,4-dioxo-1H,2H,3H,4H-thieno[2,3-d]pyrimidin-3-yl]-2-methylpropanoic acid] | > 7.00 | > 7.00
12 | COc1ccccc1[C@H](Cn1c(=O)n(C(C)(C)C(=O)O)c(=O)c2c(C)c(-c3ncco3)sc21)OC[C@@H](C)O [I-258, 2-[1-[(2R)-2-[(2R)-2-hydroxypropoxy]-2-(2-methoxyphenyl)ethyl]-5-methyl-6-(1,3-oxazol-2-yl)-2,4-dioxo-1H,2H,3H,4H-thieno[2,3-d]pyrimidin-3-yl]-2-methylpropanoic acid] | > 7.00 | > 7.00
13 | COc1ccccc1[C@H](Cn1c(=O)n(C(C)(C)C(N)=O)c(=O)c2c(C)c(-c3ncco3)sc21)OCC1CCOCC1 [I-260, 2-[1-[(2R)-2-(2-methoxyphenyl)-2-(oxan-4-ylmethoxy)ethyl]-5-methyl-6-(1,3-oxazol-2-yl)-2,4-dioxo-1H,2H,3H,4H-thieno[2,3-d]pyrimidin-3-yl]-2-methylpropanamide] | > 7.00 | > 7.00

Continued, values first:

Row | pIC50 (ACC1) | pIC50 (ACC2) | Structure (SMILES)
14 | > 7.00 | > 7.00 | Cc1c(-c2ncco2)sc2c1c(=O)n(C(C)(C)C(=O)O)c(=O)n2C[C@H](OC[C@@H](C)O)c1ccccc1 [I-179, 2-[1-[(2R)-2-[(2R)-2-hydroxypropoxy]-2-phenylethyl]-5-methyl-6-(1,3-oxazol-2-yl)-2,4-dioxo-1H,2H,3H,4H-thieno[2,3-d]pyrimidin-3-yl]-2-methylpropanoic acid]
15 | > 7.00 | > 7.00 | CCc1ccccc1[C@H](Cn1c(=O)n(C(C)(C)C(=O)O)c(=O)c2c(C)c(-c3ncco3)sc21)OC(C)C [I-180, 2-[1-[(2R)-2-(2-ethylphenyl)-2-(propan-2-yloxy)ethyl]-5-methyl-6-(1,3-oxazol-2-yl)-2,4-dioxo-1H,2H,3H,4H-thieno[2,3-d]pyrimidin-3-yl]-2-methylpropanoic acid]
16 | > 7.00 | > 7.00 | COc1ccccc1[C@H](Cn1c(=O)n(C(C)(C)C(=O)NC(C)C)c(=O)c2c(C)c(-c3ncco3)sc21)OC(C)C [I-242, 2-[1-[(2R)-2-(2-methoxyphenyl)-2-(propan-2-yloxy)ethyl]-5-methyl-6-(1,3-oxazol-2-yl)-2,4-dioxo-1H,2H,3H,4H-thieno[2,3-d]pyrimidin-3-yl]-2-methyl-N-(propan-2-yl)propanamide]
17 | > 7.00 | > 7.00 | CCc1ccccc1[C@H](Cn1c(=O)n(C(C)(C)C(=O)O)c(=O)c2c(C)c(-c3ncco3)sc21)O[C@H]1CC[C@@H](O)CC1 [I-245, 2-(1-((R)-2-(2-ethylphenyl)-2-(((1s,4S)-4-hydroxycyclohexyl)oxy)ethyl)-5-methyl-6-(oxazol-2-yl)-2,4-dioxo-1,2-dihydrothieno[2,3-d]pyrimidin-3(4H)-yl)-2-methylpropanoic acid]
18 | > 7.00 | > 7.00 | CCc1ccccc1[C@H](Cn1c(=O)n(C(C)(C)C(=O)O)c(=O)c2c(C)c(-c3ncco3)sc21)OC1CCOCC1 [I-249, 2-[1-[(2R)-2-(2-ethylphenyl)-2-(oxan-4-yloxy)ethyl]-5-methyl-6-(1,3-oxazol-2-yl)-2,4-dioxo-1H,2H,3H,4H-thieno[2,3-d]pyrimidin-3-yl]-2-methylpropanoic acid]
19 | > 7.00 | > 7.00 | COc1ccccc1[C@H](Cn1c(=O)n(C(C)(C)C(=O)O)c(=O)c2c(C)c(-c3ncco3)sc21)OCCO [I-254, 2-[1-[(2R)-2-(2-hydroxyethoxy)-2-(2-methoxyphenyl)ethyl]-5-methyl-6-(1,3-oxazol-2-yl)-2,4-dioxo-1H,2H,3H,4H-thieno[2,3-d]pyrimidin-3-yl]-2-methylpropanoic acid]
20 | > 7.00 | > 7.00 | COc1ccccc1[C@H](Cn1c(=O)n(C(C)(C)C(=O)O)c(=O)c2c(C)c(-c3ncco3)sc21)OCC1CCOCC1 [I-259, 2-[1-[(2R)-2-(2-methoxyphenyl)-2-(oxan-4-ylmethoxy)ethyl]-5-methyl-6-(1,3-oxazol-2-yl)-2,4-dioxo-1H,2H,3H,4H-thieno[2,3-d]pyrimidin-3-yl]-2-methylpropanoic acid]
